Measurements taken from patent US10231453B2, “5-substituted imidazole derivatives” (BAYER CROPSCIENCE AKTIENGESELLSCHAFT, priority 2015, dated 2019).

Key:
[1] = Measurement of LogP values by HPLC on reversed phase columns (EEC directive 79/831 Annex V.A8); assay type: physicochemical; settings: method [a]: LC-UV, acidic range, 0.1% formic acid in water and acetonitrile as eluent; Table 1
Method: Measurement of Log P values was performed as outlined above.

Botrytis cinerea = test: In vivo preventive test on Botrytis cinerea (grey mould) on gherkin, Examples B, Q1 and R2; settings: Botrytis cinerea, 500 ppm of active ingredient, preventive spray, evaluated 4 to 5 days after inoculation, read-out: efficacy
Puccinia recondita = test: In vivo preventive test on Puccinia recondita (brown rust on wheat), Examples C and R3; settings: Puccinia recondita, 264 h; 500 ppm of active ingredient; wheat, preventive spray, evaluated 11 days after inoculation; read-out: efficacy
Pyrenophora teres = test: In vivo preventive test on Pyrenophora teres (net blotch on barley), Examples D, Q2 and R4; settings: Pyrenophora teres, 336 h, 500 ppm of active ingredient, preventive spray, evaluated 14 days after inoculation, read-out: efficacy
Septoria tritici = test: In vivo preventive test on Septoria tritici (leaf spot on wheat), Examples E, Q3 and R5; settings: Zymoseptoria tritici, 576 h, 500 ppm of active ingredient; wheat, preventive spray, evaluated 24 days after inoculation; read-out: efficacy
Sphaerotheca fuliginea = test: In vivo preventive test on Sphaerotheca fuliginea (powdery mildew on cucurbits), Examples F and R6; settings: Podosphaera fuliginea, 360 h; 500 ppm of active ingredient; gherkin, preventive spray, evaluated 15 days after inoculation; read-out: efficacy
Uromyces appendiculatus = test: In vivo preventive test on Uromyces appendiculatus (bean rust), Examples G and R7; settings: 264 h, 500 ppm of active ingredient, bean, preventive spray, evaluated 11 days after inoculation, read-out: efficacy
[2] = test system: Blumeria graminis fsp. hordei; test: In vivo preventive Blumeria test (barley), Example K; settings: 168 h, 500 ppm of active ingredient, preventive spray, evaluated 7 days after inoculation, read-out: efficacy
Description: After the spray coating has been dried, the plants are dusted with spores of Blumeria graminis fsp. hordei.

Alternaria brassicae = test: In vivo preventive test on Alternaria brassicae (leaf spot on radish), Examples A and R1; settings: Alternaria brassicae, 144 h, read-out: Efficacy in %; for pest or weed control at 100 ppm: Example R1, rate of application 100 ppm; for pest or weed control at 500 ppm: Example R1, rate of application 500 ppm

Structure (SMILES)	chromatographic logP [1]	pest or weed control at 500 ppm (Botrytis cinerea) [%]	pest or weed control at 500 ppm (Puccinia recondita) [%]	pest or weed control at 500 ppm (Pyrenophora teres) [%]	pest or weed control at 500 ppm (Septoria tritici) [%]	pest or weed control at 500 ppm (Sphaerotheca fuliginea) [%]	pest or weed control at 500 ppm (Uromyces appendiculatus) [%]	pest or weed control at 500 ppm [2] [%]	pest or weed control at 100 ppm (Alternaria brassicae) [%]	pest or weed control at 500 ppm (Alternaria brassicae) [%]
CC(C)C(O)(Cc1ccc(Cl)cc1F)Cn1cncc1C#N (stereo not drawn) [Example I-118]	2.91	90 to 100	90 to 100	70 to 79	70 to 79	90 to 100	90 to 100	–	–	–
CC1(C(O)(Cc2ccc(F)cc2F)Cn2cncc2C#N)CC1 (stereo not drawn) [Example I-124]	2.65	90 to 100	90 to 100	90 to 100	90 to 100	90 to 100	90 to 100	–	–	–
N#Cc1cncn1CC(O)(Cc1ccc(F)cc1F)CC1CC1 (stereo not drawn) [Example I-130]	2.69	90 to 100	90 to 100	70 to 79	90 to 100	90 to 100	90 to 100	–	–	–
CC1(C(O)(Cc2ccccc2F)Cn2cncc2C#N)CC1 (stereo not drawn) [Example I-131]	2.68	70 to 79	90 to 100	80 to 89	90 to 100	90 to 100	90 to 100	–	–	–
N#Cc1cncn1CC(O)(Cc1ccccc1F)C1CC1 (stereo not drawn) [Example I-136]	–	–	90 to 100	–	90 to 100	90 to 100	90 to 100	90 to 100	–	–
CC(C)C(O)(Cc1ccccc1F)Cn1cncc1C#N (stereo not drawn) [Example I-139]	2.4	90 to 100	90 to 100	70 to 79	90 to 100	90 to 100	90 to 100	–	–	–
Cc1cccc(CC(O)(Cn2cncc2C#N)C2(Cl)CC2)c1F (stereo not drawn) [Example I-142]	2.99	80 to 89	80 to 89	80 to 89	70 to 79	90 to 100	90 to 100	–	–	–
OC(Cc1ccccc1Cl)(Cn1cnc(Br)c1)C1(Cl)CC1 (stereo not drawn) [drawing 59, reference compound]	–	–	–	–	–	–	–	–	0	40
Cc1cn(CC(O)(Cc2ccccc2Cl)C2(Cl)CC2)cn1 (stereo not drawn) [drawing 61, reference compound]	–	–	–	–	–	–	–	–	0	0
OC(Cc1ccccc1F)(Cn1cnc(Cl)c1)C1(Cl)CC1 (stereo not drawn) [drawing 63, reference compound]	–	–	–	–	–	–	–	–	0	0
OC(Cc1ccccc1F)(Cn1ccnc1Cl)C1(Cl)CC1 (stereo not drawn) [drawing 64, reference compound]	–	–	–	–	–	–	–	–	0	0
N#Cc1cn(CC(O)(Cc2ccccc2F)C2(Cl)CC2)cn1 (stereo not drawn) [drawing 68, reference compound]	–	–	–	–	–	–	–	–	0	0
